The values that follow come from the RepoRT retention time repository (doi:10.1016/j.foodchem.2021.129757).

One data set is described as follows: RP, 150 × 2.1 mm, 2.6 µm, 40 °C, 0.35 mL/min, estimated dead time 0.94 min; A: water + 0.1% formic acid, pH 3; B: acetonitrile + 0.1% formic acid, pH 3; gradient (min/%B) 0/0 1/0 12.5/100 14/100 14.2/0 15/0. The following applies: stereoisomer not certain.
With `COc1cc(-c2oc3cc(O)cc(O)c3c(=O)c2O)ccc1OC1OC(C(=O)O)C(O)C(O)C1O` (configuration not stated) [Isorhamnetin 4'-O-glucuronide], the LC retention time is 6.03 min.

In the case of `O=C(O)CNC(=O)c1ccccc1O` [2-Hydroxyhippuric acid], the LC retention time was 5.5 min.

In the case of `O=C(O)CNC(=O)c1ccco1` [2-Furoylglycine], the LC retention time was 2.51 min.

With `COc1ccc2[nH]cc(CC(=O)O)c2c1` [5-Methoxyindoleacetic acid], the LC retention time was 6.26 min.

`O=C(O)CCCc1c[nH]c2ccccc12` [3-Indolebutyric acid]: the LC retention time is 7.63 min.

As for `O=C(O)C(O)CCc1ccccc1` (configuration not stated) [2-hydroxy-4-phenylbutyric acid], the LC retention time was 6.54 min.

Turning to `O=C(NC(O)C(=O)O)c1ccccc1` (stereo not drawn) [Alpha-hydroxyhippuric acid], the LC retention time was 3.62 min.

On to `O=C1CC(c2ccc(O)cc2)Oc2cc(OC3OC(CO)C(O)C(O)C3O)cc(O)c21` (configuration not stated) [Naringenin 7-O-glucoside], for which the LC retention time was 6.02 min.

`COc1cc(-c2oc3cc(O)cc(O)c3c(=O)c2OC2OC(CO)C(O)C(O)C2O)cc(OC)c1O` (configuration not stated) [Syringetin-3-glucoside]: the LC retention time was 6 min.

For the molecule `O=c1c(OC2OC(CO)C(O)C(O)C2O)c(-c2ccc(O)cc2)oc2cc(O)cc(O)c12` (configuration not stated) [Kaempferol-3-O-glucoside], the LC retention time is 5.95 min.

For the molecule `O=C(O)CCc1c[nH]c2ccccc12` [3-Indolepropionic acid], the LC retention time was 7.09 min.

As for `O=c1cc(-c2ccc(O)c(O)c2)oc2c(C3OC(CO)C(O)C(O)C3O)c(O)cc(O)c12` (configuration not stated) [Orientin], the LC retention time was 5.3 min.

Turning to `CCC=CCC1C(=O)CCC1CC(=O)OC` (configuration not stated) [Methyl jasmonate], the LC retention time is 7.64 min.

`COc1cccc(O)c1O` [3-Methoxycatechol]: the LC retention time was 4.79 min.

`Nc1c(O)cccc1C(=O)O` [3-Hydroxyanthranilic acid]: the LC retention time was 3.21 min.

Turning to `NC(=O)Cc1c[nH]c2ccccc12` [3-Indoleacetamide], the LC retention time was 5.28 min.

In the case of `CC1OC(OCC2OC(Oc3c(-c4ccc(O)cc4)oc4cc(O)cc(O)c4c3=O)C(O)C(O)C2O)C(O)C(O)C1O` (configuration not stated) [Kaempferol 3-O-rutinoside], the LC retention time is 5.78 min.

Consider `O=c1ccc2cc(OC3OC(CO)C(O)C(O)C3O)c(O)cc2o1` (configuration not stated) [Esculin], for which the LC retention time is 4.11 min.

Regarding `COC(=O)Cc1c[nH]c2ccccc12` [Methyl indole acetate], the LC retention time is 8.01 min.

As to `O=c1ccc2ccc(O)cc2o1` [Umbelliferone], the LC retention time is 5.77 min.

For the molecule `Cc1cc(=O)oc2cc(O)ccc12` [4-methylumbelliferone], the LC retention time is 6.41 min.

Another data set is described as follows: RP, 150 × 2.1 mm, 2.6 µm, 40 °C, 0.35 mL/min, estimated dead time 0.94 min; A: water + 0.1% formic acid, pH 3; B: acetonitrile + 0.1% formic acid, pH 3; gradient (min/%B) 0/0 1/5 7/45 8.5/80 10.5/80 11/5 12/5. The following applies: stereoisomer not certain.
On to `COc1cc(-c2oc3cc(O)cc(O)c3c(=O)c2O)ccc1OC1OC(C(=O)O)C(O)C(O)C1O` (configuration not stated) [Isorhamnetin 4'-O-glucuronide], for which the LC retention time was 6.21 min.

`O=C(O)CNC(=O)c1ccccc1O` [2-Hydroxyhippuric acid]: the LC retention time was 5.38 min.

`O=C(O)CNC(=O)c1ccco1` [2-Furoylglycine]: the LC retention time is 2.35 min.

In the case of `COc1ccc2[nH]cc(CC(=O)O)c2c1` [5-Methoxyindoleacetic acid], the LC retention time is 6.29 min.

With `O=C(O)CCCc1c[nH]c2ccccc12` [3-Indolebutyric acid], the LC retention time was 7.97 min.

With `O=C(O)C(O)CCc1ccccc1` (configuration not stated) [2-hydroxy-4-phenylbutyric acid], the LC retention time was 6.6 min.

Turning to `O=C(NC(O)C(=O)O)c1ccccc1` (stereo not drawn) [Alpha-hydroxyhippuric acid], the LC retention time was 3.34 min.

Turning to `O=C1CC(c2ccc(O)cc2)Oc2cc(OC3OC(CO)C(O)C(O)C3O)cc(O)c21` (configuration not stated) [Naringenin 7-O-glucoside], the LC retention time was 6.17 min.

As to `COc1cc(-c2oc3cc(O)cc(O)c3c(=O)c2OC2OC(CO)C(O)C(O)C2O)cc(OC)c1O` (configuration not stated) [Syringetin-3-glucoside], the LC retention time was 6.17 min.

Consider `O=c1c(OC2OC(CO)C(O)C(O)C2O)c(-c2ccc(O)cc2)oc2cc(O)cc(O)c12` (configuration not stated) [Kaempferol-3-O-glucoside], for which the LC retention time is 6.11 min.

For `O=C(O)CCc1c[nH]c2ccccc12` [3-Indolepropionic acid], the LC retention time was 7.34 min.

For the molecule `O=c1cc(-c2ccc(O)c(O)c2)oc2c(C3OC(CO)C(O)C(O)C3O)c(O)cc(O)c12` (configuration not stated) [Orientin], the LC retention time was 5.29 min.

On to `CCC=CCC1C(=O)CCC1CC(=O)OC` (configuration not stated) [Methyl jasmonate], for which the LC retention time was 7.97 min.

Take `COc1cccc(O)c1O` [3-Methoxycatechol]: the LC retention time is 4.56 min.

`Nc1c(O)cccc1C(=O)O` [3-Hydroxyanthranilic acid]: the LC retention time is 2.89 min.

As for `NC(=O)Cc1c[nH]c2ccccc12` [3-Indoleacetamide], the LC retention time was 5.15 min.
